Results as given in US6337330B1, “Antitussives” (priority 1997, dated 2002).

Experiments:
[1] = test system: Rat Model of Capsaicin-induced Cough; assay: Antitussive action using rat model of capsaicin-induced cough; type: in vivo, SD male rats; details: 30 minutes after administration, capsaicin 60 μM, versus distilled water group
Excerpt: Evaluation of Antitussive Action Using Rat Model of Capsaicin-induced Cough
Rat groups each consisting of 5 SD male rats (Charles River Japan) of 7 weeks old were used. The rats not anesthetized were placed in a container comprising two acrylic cylinders including a head and a body. A rubber collar and plastic collar were put on each of the rats, and the head and body of the container were independently provided.
Capsaicin used as a medicine for inducing coughs was aerosolized by an ultrasonic nebulizer, and inhaled by the rats from the front side of the container by using an artificial respiration apparatus. The concentration of capsaicin was 60 μM. In this inhalation, the flow rate of air was 10 ml×70 times/min (700 ml/min). Changes in internal pressure of the closed body box were recorded on a recorder through a differential transducer. Coughs were measured by the changes in internal the body box and visually observing the motions of the rats.
A medicine was diluted with distilled water, and 1 to 10 mg/5 ml/kg was subcutaneously administered.
Each of the rats was fixed by a holder, and 60 minutes after, capsaicin was inhaled for 3 minutes to count the number of coughs. The rats having at least 9 coughs were subjected to examination of a medicine. The rats were administered subcutaneously with a medicine, and fixed by a holder, and 30 minutes after, capsaicin was inhaled for 3 minutes to count the number of coughs. The antitussive action of each of compounds was represented by the inhibition rate shown by the number of coughs of the group in which a medicine was administered based on the number of coughs of the group in which distilled water was administered.

[2] = test system: Mouse Model of Capsaicin-induced Cough; assay: Antitussive action using mouse model of capsaicin-induced cough; type: in vivo
Experimental: Evaluation of Antitussive Action Using Mouse Model of Capsaicin-induced Cough
Capsaicin (30 μM) was sent as aerosol to a cap attached to the head of a mouse by using an ultrasonic nebulizer and an artificial respiratory apparatus through a silicon tube, and inhaled by the mouse to induce coughs. For inhalation of capsaicin, capsaicin was sent by using the artificial respiratory apparatus at a rate of 60 times per minute in a dose of 5 ml at a time.
15 minutes before administration of a medicine, capsaicin was inhaled for 3 minutes, and it was confirmed that coughs were induced during this time. 15 minutes, 60 minutes and 120 minutes after administration of a medicine, capsaicin was inhaled for 3 minutes to measure the number of coughs induced during this time. The antitussive effect was evaluated by determining the inhibition rate shown by the number of coughs after administration of a medicine based on the number of coughs before administration of a medicine. Capsaicin was dissolved in 10% ethanol and a 10% Tween 80 solution, and diluted with physiological saline. The medicine was dissolved in physiological saline, and intraperitoneally administered.

SMILES: Oc1cccc([C@@]23CCNCC2Cc2cc4ccccc4nc2C3)c1 (stereo in doubt) [Compound 4, (4aR, 12aR)-4a-(3-hydroxyphenyl)-1,2,3,4,4a,5,12,12a-octahydroquinolino[2,3-g]isoquinoline]
- Inhibition rate (%) of number of coughs ([1]; 10 mg/kg subcutaneous): 34.0%

SMILES: CN1CC[C@@]2(c3cccc(O)c3)Cc3nc4ccccc4cc3CC2C1 (stereo in doubt) [Compound 2, (4aR, 12aR)-2-methyl-4a-(3-hydroxyphenyl)-1,2,3,4,4a,5,12,12a-octahydro-quinolino[2,3-g]isoquinoline]
- Inhibition rate (%) of number of coughs ([1]; 1 mg/kg subcutaneous): 72.5%
- time of peak antitussive effect after administration ([2]; 10 μg/kg intraperitoneal): 15 min
- antitussive effect 120 minutes after administration ([2]; 10 μg/kg intraperitoneal, 120 minutes after administration): recovered to the same level as a group in which physiological saline was administered
- effect of suppressing coughs (inhibition rate of number of coughs) ([2]; 10 μg/kg intraperitoneal, versus physiological saline group, p<0.05 (U test)): significant effect of suppressing coughs
- ED50 ([2]; ip, intraperitoneal, fifteen minutes after administration, capsaicin 30 μM inhalation, calculated from FIG. 2, read-out: ED50 value of the antitussive effect): 4.2 µg/kg

SMILES: COc1cccc([C@@]23CCN(C)C[C@@H]2Cc2cc4ccccc4nc2C3)c1
- melting point: 154 to 155.5 °C

SMILES: Oc1cccc([C@@]23CCN(CCc4ccccc4)C[C@H]2Cc2cc4ccccc4nc2C3)c1 [Compound 7, (4aR, 12aR)-2-(2-phenethyl)-4a-(3-hydroxyphenyl)-1,2,3,4,4a,5,12,12a-octahydroquinolino[2,3-g]isoquinoline]
- Inhibition rate (%) of number of coughs ([1]; 1 mg/kg subcutaneous): 44.3%

SMILES: Oc1cccc([C@@]23CCN(CC4CC4)CC2Cc2cc4ccccc4nc2C3)c1 (stereo in doubt) [Compound 6, (4aR, 12aR)-2-cyclopropylmethyl-4a-(3-hydroxyphenyl)-1,2,3,4,4a,5,12,12a-octahydroquinolino[2,3-g]isoquinoline]
- Inhibition rate (%) of number of coughs ([1]; 1 mg/kg subcutaneous): 30.9%
